Read-outs that look alike come from different tables or passages of the source. Numbered stars: 1 amine (or outer) side, 2 acyl side, 3 side chain; on linkers, the order of the positions; unused ones are H or OH. Square brackets hold non-standard residues; d marks the D form. Peptide text beside a SMILES is read from it. * marks the point of attachment. X20 = O=C(CCCCCO[C@@H]1O[C@H](CO)[C@@H](O)[C@H](O)[C@H]1N[*:1])[*:2]; NHOctadecyl = CCCCCCCCCCCCCCCCCCN*; hPhe = N[C@@H](CCc1ccccc1)C(=O)O; Morpholide = C1CN(*)CCO1; Octanoyl = CCCCCCCC(=O)*; Piperidide = C1CCN(*)CC1; X7 = O=C(CO*)OCc1ccccc1; Cbz = O=C(OCc1ccccc1)*; NHDecyl = CCCCCCCCCCN*; PhAc = O=C(Cc1ccccc1)*; ODecyl = CCCCCCCCCCO*; OBn = c1ccc(CO*)cc1; Ahx = NCCCCCC(=O)O; OtBu = CC(C)(C)O*; tBu = CC(C)(C)*; X6 = O=C(O)CO*; NHBu = CCCCN*
Target: VLA-4 (Homo sapiens, UniProt P05556+P13612)
Experiment: In vitro binding inhibition of 51Cr-labeled Jurkat cells to solid phase-bound CS-1 compound (SEQ ID NO:1)
Format: cell-based
Set-up: inflammatory cells that contain the VLA-4 receptor [Jurkat cells; host or cells: Jurkat (human T lymphoblastic line)
Settings: for Relative Potency (prodrug compound): relative to SEQ ID NO:3 = 1, potency before the prodrug compound is enzymatically converted to an active form
Method in brief: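 51Cr-labeled human Jurkat cells were preincubated with compound 30 min at about 22° C, then allowed to bind to wells coated with CS-1 peptide or CS-1-OVA for 30 min at 37° C. After washing, bound cells were lysed with SDS and counted. IC50 is the concentration halving binding, normalized to SEQ ID NO: 3.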

[1] = binding inhibition potency relative to standard compound of SEQ ID NO:3 = 1 (normalized IC50), about one-tenth or less assigned zero

Chain of VLA-4 (P13612 34-1032): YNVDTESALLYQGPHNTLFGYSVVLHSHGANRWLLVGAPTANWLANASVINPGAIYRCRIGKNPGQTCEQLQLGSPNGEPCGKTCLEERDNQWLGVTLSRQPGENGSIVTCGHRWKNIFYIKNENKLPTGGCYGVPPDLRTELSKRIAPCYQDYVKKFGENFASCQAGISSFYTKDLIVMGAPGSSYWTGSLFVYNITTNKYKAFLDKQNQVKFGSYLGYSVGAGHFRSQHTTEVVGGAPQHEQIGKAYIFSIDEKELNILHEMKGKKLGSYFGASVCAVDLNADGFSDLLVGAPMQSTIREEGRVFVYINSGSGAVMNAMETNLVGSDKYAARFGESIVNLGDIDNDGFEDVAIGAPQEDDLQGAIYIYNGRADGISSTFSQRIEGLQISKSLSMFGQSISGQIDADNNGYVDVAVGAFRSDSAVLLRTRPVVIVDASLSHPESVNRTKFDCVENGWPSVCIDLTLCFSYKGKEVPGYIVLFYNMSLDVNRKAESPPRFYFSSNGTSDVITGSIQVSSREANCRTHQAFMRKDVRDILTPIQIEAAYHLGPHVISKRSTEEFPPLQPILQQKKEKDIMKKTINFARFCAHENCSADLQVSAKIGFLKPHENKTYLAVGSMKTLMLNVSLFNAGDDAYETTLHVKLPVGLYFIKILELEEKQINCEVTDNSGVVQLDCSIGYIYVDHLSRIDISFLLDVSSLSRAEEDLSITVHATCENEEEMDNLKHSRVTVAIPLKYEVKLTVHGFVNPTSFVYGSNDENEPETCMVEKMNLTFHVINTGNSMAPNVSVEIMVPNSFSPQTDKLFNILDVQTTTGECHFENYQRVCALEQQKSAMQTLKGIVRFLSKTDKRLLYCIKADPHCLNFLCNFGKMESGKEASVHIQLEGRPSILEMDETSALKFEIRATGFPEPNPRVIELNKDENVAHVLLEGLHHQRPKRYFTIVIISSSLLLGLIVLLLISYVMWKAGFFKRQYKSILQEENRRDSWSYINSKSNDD
Chain of VLA-4 (P05556 21-798): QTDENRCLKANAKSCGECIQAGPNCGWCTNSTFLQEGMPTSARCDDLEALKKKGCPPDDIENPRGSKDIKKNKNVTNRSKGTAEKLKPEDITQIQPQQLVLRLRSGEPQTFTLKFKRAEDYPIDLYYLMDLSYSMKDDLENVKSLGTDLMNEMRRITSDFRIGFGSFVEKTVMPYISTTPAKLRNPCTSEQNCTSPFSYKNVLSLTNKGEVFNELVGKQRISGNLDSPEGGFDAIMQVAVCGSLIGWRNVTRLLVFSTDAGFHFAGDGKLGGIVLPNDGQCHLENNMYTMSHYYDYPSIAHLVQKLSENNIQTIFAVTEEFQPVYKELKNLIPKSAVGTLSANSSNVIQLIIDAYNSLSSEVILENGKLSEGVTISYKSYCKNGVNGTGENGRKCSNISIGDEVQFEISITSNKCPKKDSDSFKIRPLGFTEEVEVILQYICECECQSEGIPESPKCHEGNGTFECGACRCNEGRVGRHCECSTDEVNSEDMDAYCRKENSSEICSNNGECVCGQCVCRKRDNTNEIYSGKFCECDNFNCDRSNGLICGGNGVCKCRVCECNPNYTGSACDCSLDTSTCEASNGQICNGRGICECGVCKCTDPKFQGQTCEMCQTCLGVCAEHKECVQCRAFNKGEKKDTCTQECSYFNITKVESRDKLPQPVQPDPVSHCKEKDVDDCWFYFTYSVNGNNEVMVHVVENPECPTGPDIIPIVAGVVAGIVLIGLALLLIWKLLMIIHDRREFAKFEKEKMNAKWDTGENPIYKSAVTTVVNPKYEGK

Relative Potency	Structure (SMILES)	Relative Potency [1]	also measured
	CC(C)C[C@H](NC(=O)Cc1ccccc1)C(=O)N[C@@H](CC(=O)O)C(=O)N[C@@H](Cc1ccc(OC(C)(C)C)cc1)C(=O)OC(C)(C)C [1040.01] (PhAc-Leu-Asp-Tyr(tBu)-OtBu)	2.66	
	CC(C)C[C@H](NC(=O)Cc1ccccc1)C(=O)N[C@@H](CC(=O)O)C(=O)N[C@@H](Cc1ccc(O)cc1)C(=O)OC(C)(C)C [1040.02] (PhAc-Leu-Asp-Tyr-OtBu)	14.7	
	CC(C)C[C@@H](CN[C@@H](CC(=O)O)C(=O)N[C@@H](Cc1ccccc1)C(=O)N1CCCCC1)NC(=O)Cc1ccccc1 [1041.01]	0	
	NC(=O)[C@H]1CCCN1C(=O)[C@H](Cc1ccccc1)NC(=O)[C@H](CC(=O)O)NC(=O)[C@H](CS)NC(=O)Cc1ccccc1 [1042.22] (PhAc-CDF[dP]-NH2)	46.9	
	CC(C)C[C@H](NC(=O)Cc1ccccc1)C(=O)N[C@@H](CC(=O)O)C(=O)N[C@@H](CO)C(=O)N1CCC[C@@H]1C(N)=O [1042.23] (PhAc-LDS[dP]-NH2)	33.2	
	CC(C)C[C@H](NC(=O)Cc1ccccc1)C(=O)N[C@@H](CC(=O)O)C(=O)N[C@@H]1CCCCNC1=O [1043.01]	17.2	
	CC(C)C[C@H](NC(=O)Cc1ccccc1)C(=O)N[C@@H](CC(=O)O)C(=O)NC1CCCCNC1=O (some centres unmarked) [1043.02]	26.8	
	CC(C)C[C@H](NC(=O)Cc1ccccc1)C(=O)N[C@@H](CC(=O)O)C(=O)N[C@@H](Cc1ccc(O)cc1)C(=O)N1CCOCC1 [1045.02] (PhAc-Leu-Asp-Tyr-Morpholide)	313	
	CC(C)C[C@H](NC(=O)Cc1ccccc1)C(=O)N[C@@H](CC(=O)O)C(=O)N1C(=O)N(Cc2ccccc2)C(=O)[C@H]1Cc1ccccc1 [1047.07]	.38	
	CC(C)C[C@H](NC(=O)Cc1ccccc1)C(=O)N[C@@H](CC(=O)O)C(=O)N1C(=O)N(Cc2ccccc2)C(=O)[C@@H]1Cc1ccccc1 [1047.08]	.38	
	CC(C)C[C@H](NC(=O)Cc1ccccc1)C(=O)N[C@@H](CC(=O)O)C(=O)N[C@@H](Cc1ccccc1)C(=O)N1CCNCC1 [1051.02]	507	
	CCCCNC(=O)[C@H](Cc1ccccc1)NC(=O)[C@H](CC(=O)O)NC(=O)[C@H](CC(C)C)NC(=O)Cc1ccccc1 [1051.03] (PhAc-Leu-Asp-Phe-NHBu)	2.82	
	CC(C)C[C@H](NC(=O)Cc1ccccc1)C(=O)N[C@@H](CC(=O)O)C(=O)N[C@@H](Cc1ccccc1)C(=O)NCC(=O)N1CCOCC1 [1051.04] (PhAc-LDFG-Morpholide)	3.13	
	CC(C)C[C@H](NC(=O)Cc1ccccc1)C(=O)N[C@@H](CC(=O)O)C(=O)N[C@@H](Cc1ccccc1)C(=O)NCCCO [1051.05]	25	
34.4	CC(C)C[C@H](NC(=O)OCc1ccccc1)C(=O)N[C@@H](CC(=O)O)C(=O)N[C@@H](Cc1ccccc1)C(=O)N1CCC[C@@H]1C(N)=O [1056.01] (Cbz-LDF[dP]-NH2)		
0	COc1ccc(CCCC(=O)N[C@@H](CC(=O)O)C(=O)N[C@@H](Cc2ccccc2)C(=O)N2CCC[C@@H]2C(N)=O)cc1OC [1056.02]		
0	CC(=O)[C@H]1C[C@@H](CC(=O)N[C@@H](CC(=O)O)C(=O)N[C@@H](Cc2ccccc2)C(=O)N2CCC[C@@H]2C(N)=O)C1(C)C [1056.03]		
.2	NC(=O)[C@H]1CCCN1C(=O)[C@H](Cc1ccccc1)NC(=O)[C@H](CC(=O)O)NC(=O)CCCCc1ccccc1 [1056.04]		
0	NC(=O)[C@H]1CCCN1C(=O)[C@H](Cc1ccccc1)NC(=O)[C@H](CC(=O)O)NC(=O)c1cc2cc(O)ccc2cc1O [1056.05]		
0	CC(C)[C@@H]1CC[C@@H](C)C[C@H]1OCC(=O)N[C@@H](CC(=O)O)C(=O)N[C@@H](Cc1ccccc1)C(=O)N1CCC[C@@H]1C(N)=O [1056.06]		
0	NC(=O)[C@H]1CCCN1C(=O)[C@H](Cc1ccccc1)NC(=O)[C@H](CC(=O)O)NC(=O)CCCCCC1CCCCC1 [1056.07]		

Relative Potency	Structure (SMILES)	Relative Potency [1]	also measured
0	NC(=O)[C@H]1CCCN1C(=O)[C@H](Cc1ccccc1)NC(=O)[C@H](CC(=O)O)NC(=O)CCCCC1CCCCC1 [1056.08]		
	NC(=O)[C@H]1CCCN1C(=O)[C@H](Cc1ccccc1)NC(=O)[C@H](CC(=O)O)NC(=O)CCCCC1CCSS1 (some centres unmarked) [1056.09]	1.1	
0	CC(C)=CCCC(C)CC(=O)N[C@@H](CC(=O)O)C(=O)N[C@@H](Cc1ccccc1)C(=O)N1CCC[C@@H]1C(N)=O (some centres unmarked) [1056.10]		
0	NC(=O)[C@H]1CCCN1C(=O)[C@H](Cc1ccccc1)NC(=O)[C@H](CC(=O)O)NC(=O)CCCCC[N+](=O)[O-] [1056.11]		
0	CCCCCCCC(=O)N[C@@H](CC(=O)O)C(=O)N[C@@H](Cc1ccccc1)C(=O)N1CCC[C@@H]1C(N)=O [1056.12] (Octanoyl-Asp-Phe-[dP]-NH2)		
0	NC(=O)[C@H]1CCCN1C(=O)[C@H](Cc1ccccc1)NC(=O)[C@H](CC(=O)O)NC(=O)CC12CC3CC(CC(C3)C1)C2 [1056.13]		
.25	CC(C)CC(CCCc1ccccc1)C(=O)N[C@@H](CC(=O)O)C(=O)N[C@@H](Cc1ccccc1)C(=O)N1CCC[C@@H]1C(N)=O (some centres unmarked) [1056.14]		
	O=C(O)CC(C(=O)N[C@@H](Cc1ccccc1)C(=O)N1CCCCC1)N1CC[C@H](NC(=O)Cc2ccccc2)C1=O (some centres unmarked) [1057.01]	.88	
	CC(C)C[C@H](NC(=O)Cc1ccccc1)C(=O)N[C@@H](CC(=O)O)C(=O)N[C@H]1CCN(C2CCCCC2)C1=O [1057.02]	6.57	
	CC(C)C[C@H](NC(=O)Cc1ccccc1)C(=O)N[C@@H](CC(=O)O)C(=O)N[C@@H]1CCN(C2CCCCC2)C1=O [1057.03]	3.44	
	COc1ccccc1N1CC[C@H](NC(=O)[C@H](CC(=O)O)NC(=O)[C@H](CC(C)C)NC(=O)Cc2ccccc2)C1=O [1057.04]	3.13	
	CC(C)C[C@H](NC(=O)Cc1ccccc1)C(=O)N[C@@H](CC(=O)O)C(=O)NC1CCCCN(CC(N)=O)C1=O (some centres unmarked) [1057.06]	97	
	CC(C)C[C@H](NC(=O)Cc1ccccc1)C(=O)N[C@@H](CC(=O)O)C(=O)N[C@@H](CCc1ccccc1)C(=O)N1CCC[C@@H]1C(N)=O [1062.03] (PhAc-LD[hPhe][dP]-NH2)	93.9	
	CC(C)C[C@H](NC(=O)Cc1ccccc1)C(=O)N[C@@H](CC(=O)OCC(=O)OCc1ccccc1)C(=O)N[C@@H](Cc1ccccc1)C(=O)N1CCC[C@@H]1C(N)=O [1067.01] (PhAc-LD(X7)F[dP]-NH2)		Relative Potency (prodrug compound): .97
	CC(C)C[C@H](NC(=O)Cc1ccccc1)C(=O)N[C@@H](CC(=O)OCC(=O)O)C(=O)N[C@@H](Cc1ccccc1)C(=O)N1CCC[C@@H]1C(N)=O [1067.02] (PhAc-LD(X6)F[dP]-NH2)		Relative Potency (prodrug compound): .81
	CCCCCCCCCCCCCCCCCCNC(=O)CCCCCNC(=O)[C@@H]1CCCN1C(=O)[C@H](Cc1ccccc1)NC(=O)[C@H](CC(=O)O)NC(=O)[C@H](CC(C)C)NC(=O)Cc1ccccc1 [1068.01] (PhAc-LDFP[Ahx]-NHOctadecyl)		Relative Potency (prodrug compound): .91
	CCCCCCCCCCNC(=O)[C@@H]1CCCN1C(=O)[C@H](Cc1ccccc1)NC(=O)[C@H](CC(=O)O)NC(=O)[C@H](CC(C)C)NC(=O)Cc1ccccc1 [1068.04] (PhAc-LDFP-NHDecyl)		Relative Potency (prodrug compound): 2.13
	CCCCCCCCCCCCCCCCCC(=O)OC1CCN(C(=O)[C@H](Cc2ccccc2)NC(=O)[C@H](CC(=O)O)NC(=O)[C@H](CC(C)C)NC(=O)Cc2ccccc2)CC1 [1068.05]		Relative Potency (prodrug compound): .63
	CCCCCCCCCC(=O)OC1CCN(C(=O)[C@H](Cc2ccccc2)NC(=O)[C@H](CC(=O)O)NC(=O)[C@H](CC(C)C)NC(=O)Cc2ccccc2)CC1 [1068.06]		Relative Potency (prodrug compound): .63
	CC(C)C[C@H](NC(=O)Cc1ccccc1)C(=O)N[C@@H](CC(=O)OCc1ccccc1)C(=O)N[C@@H](Cc1ccccc1)C(=O)N1CCC[C@@H]1C(N)=O [1068.07] (PhAc-LD(OBn)F[dP]-NH2)		Relative Potency (prodrug compound): 0
	CCCCCCCCCCOC(=O)C[C@H](NC(=O)[C@H](CC(C)C)NC(=O)Cc1ccccc1)C(=O)N[C@@H](Cc1ccccc1)C(=O)N1CCC[C@@H]1C(N)=O [1068.09] (PhAc-LD(ODecyl)F[dP]-NH2)		Relative Potency (prodrug compound): 0

Structure (SMILES)	Relative Potency	Relative Potency [1]	also measured
CC(C)C[C@H](NC(=O)c1ccncc1)C(=O)N[C@@H](CC(=O)O)C(=O)N[C@@H](Cc1ccc(O)cc1)C(=O)N1CCCCC1 [1045.01]	23.8		
CC(C)C[C@@H](C(=O)N[C@@H](CC(=O)O)C(=O)N[C@@H](Cc1ccccc1)C(=O)N1CCCCC1)N1C(=O)N[C@H](c2ccccc2)C1=O [1047.01]	34.4		
CC(C)C[C@@H](C(=O)N[C@@H](CC(=O)O)C(=O)N[C@@H](Cc1ccccc1)C(=O)N1CCCCC1)N1C(=O)N[C@@H](c2ccccc2)C1=O [1047.02]	3.13		
CC(C)C[C@@H](C(=O)N1C(=O)N([C@@H](Cc2ccccc2)C(=O)N2CCCCC2)C(=O)[C@@H]1CC(=O)O)N1C(=O)c2ccccc2C1=O [1047.03]	0		
CC(C)C[C@@H]1NC(=O)N([C@@H](CC(=O)O)C(=O)N[C@@H](Cc2ccccc2)C(=O)N2CCCCC2)C1=O [1047.05]	12.5		
CC(C)C[C@@H](C(=O)N[C@@H](CC(=O)O)C(=O)N[C@@H](Cc1ccccc1)C(=O)N1CCCCC1)N1C(=O)N[C@@H](Cc2ccccc2)C1=O [1047.06]	6.26		
CC(C)C[C@H](N)C(=O)N[C@@H](CC(=O)O)C(=O)N[C@@H](Cc1ccccc1)C(=O)N1CCCCC1 [1047.09] (H-Leu-Asp-Phe-Piperidide)	0.01		
CC(=O)N[C@H]1[C@H](OCCCCCC(=O)N[C@@H](Cc2ccccc2)C(=O)N[C@@H](CC(C)C)C(=O)N[C@@H](CC(=O)O)C(=O)N[C@@H](Cc2ccccc2)C(=O)N2CCCCC2)O[C@H](CO)[C@@H](O)[C@@H]1O [1063.01] (Ac-[X20]FLDF-Piperidide)	40.7		

From patent US5770573A, “CS-1 peptidomimetics, compositions and methods of using the same” (Cytel Corporation, priority 1995, dated 1998)
